Among the data in patent US6358987B1, “Metalloproteinase inhibitors” (British Biotech Pharmaceuticals Limited, priority 1997, dated 2002) are melting point values, retold here.

One may read the melting point as the temperature of the solid-liquid transition. As for `CC(C)C[C@@H](C(=O)N[C@H](C(=O)N(C)C)C(C)(C)C)[C@H](CN(C)S(C)(=O)=O)C(=O)NO` [Example 1], the melting point lay within 216 to 218 °C. The same measure for `COCCOCCNC(=O)[C@@H](NC(=O)[C@H](CC(C)C)[C@H](CN(C)S(C)(=O)=O)C(=O)NO)C(C)(C)C` [Example 2, N^1-Hydroxy-3R-isobutyl-2R-[(methanesulfonyl-methyl-amino)-methyl]-N^4-{1S-[2-(2-methoxy-ethoxy)-ethyl-carbamoyl]-2,2-dimethyl-propyl}-succinamide]: 192 to 193 °C; for `CC(C)C[C@@H](C(=O)N[C@H](CO)Cc1ccccc1)[C@H](CN(C)S(C)(=O)=O)C(=O)NO` [Example 3, N^4-(1S-Benzyl-2-hydroxy-ethyl)-N^1-hydroxy-3R-isobutyl-2R-[(methanesulfonyl-methyl-amino)-methyl]-succinamide]: 200 to 202 °C. The same measure for `CC(C)C[C@@H](C(=O)N[C@H](CO)C(C)(C)C)[C@H](CN(C)S(C)(=O)=O)C(=O)NO` [Example 4, N^1-Hydroxy-N^4-(1S-hydroxymethyl-2,2-dimethylpropyl)-3R-isobutyl-2R-[(methanesulfonyl-methyl-amino)-methyl]-succinamide]: 167 to 169 °C; for `CC(C)C[C@@H](C(=O)N[C@H](CO)Cc1c[nH]cn1)[C@H](CN(C)S(C)(=O)=O)C(=O)NO` [Example 5, N^1-Hydroxy-N^4-[2-hydroxy-1S-(1H-imidazol-4-ylmethyl)-ethyl]-3R-isobutyl-2S-[(methanesulfonyl-methyl-amino)-methyl]-succinamide]: 219 to 221 °C. Next, `CC(C)C[C@@H](C(=O)N[C@H](CO)Cc1ccc(O)cc1)[C@H](CN(C)S(C)(=O)=O)C(=O)NO` [Example 6, N^1-Hydroxy-N^4-[2-hydroxy-1S-(4-hydroxy-benzyl)-ethyl]-3R-isobutyl-2S-[(methanesulfonyl-methyl-amino)-methyl]-succinamide]: 125 to 128 °C; `COc1ccc(S(=O)(=O)N(C)C[C@H](C(=O)NO)[C@@H](CC(C)C)C(=O)N[C@H](C(=O)N(C)C)C(C)(C)C)cc1` [Example 7, N^4-(1S-Dimethylcarbamoyl-2,2-dimethyl-propyl)-N^1-hydroxy-3R-isobutyl-2S-{[(4-methoxy-benzenesulfonyl)-methyl-amino]-methyl}-succinamide]: 217 to 222 °C; `COc1ccc(S(=O)(=O)N(C)C[C@H](C(=O)NO)[C@@H](CC(C)C)C(=O)N[C@H](CO)Cc2ccccc2)cc1` [Example 8, N^4-(1S-Benzyl-2-hydroxy-ethyl)-N^1-hydroxy-3R-isobutyl-2S-{[(4-methoxy-benzenesulfonyl)-methyl-amino]-methyl}-succinamide]: 196 to 203 °C. Compound `COc1ccc(S(=O)(=O)N(C)C[C@H](C(=O)NO)[C@@H](CC(C)C)C(=O)N[C@H](CO)Cc2c[nH]cn2)cc1` [Example 9] displayed a melting point of 208 to 209 °C.

In turn, `COc1ccc(S(=O)(=O)N(C)C[C@H](C(=O)NO)[C@@H](CC2CCCC2)C(=O)N[C@H](CO)C(C)(C)C)cc1` [Example 10, 3R-Cyclopentylmethyl-N^1-hydroxy-N^4-(1S-hydroxymethyl-2,2-dimethyl-propyl)-2S-{[(4-methoxy-benzenesulfonyl)-methyl-amino]-methyl}-succinamide] showed a melting point of 181 to 184 °C. The same measure for `CN(C[C@H](C(=O)NO)[C@@H](CCCc1ccc(-c2ccccc2)cc1)C(=O)N[C@H](CO)Cc1ccccc1)S(C)(=O)=O` [Example 12, N^4-(1S-Benzyl-2-hydroxy-ethyl)-3R-(3-biphenyl-4-yl-propyl)-N^1-hydroxy-2S-[(methanesulfonyl-methyl-amino)-methyl]-succinamide]: 201 to 207 °C; for `COc1ccc(S(=O)(=O)N(C)C[C@H](C(=O)NO)[C@@H](CCCc2ccc(-c3ccccc3)cc2)C(=O)N[C@H](CO)C(C)(C)C)cc1` [Example 13, 3R-(3-Biphenyl4-yl-propyl)-N^1-hydroxy-N^4-(1S-hydroxymethyl-2,2-dimethyl-propyl)-2S-{[(4-methoxy-benzenesulfonyl)-methyl-amino]-methyl}-succinamide]: 226 to 228 °C; for `COc1ccc(S(=O)(=O)N(C)C[C@H](C(=O)NO)[C@@H](CCCc2ccc(-c3ccccc3)cc2)C(=O)N[C@H](CO)Cc2ccccc2)cc1` [Example 14, N^4-(1S-Benzyl-2-hydroxy-ethyl)-3R-(3-biphenyl-4-yl-propyl)-N^1-hydroxy-2S-{[(4-methoxy-benzenesulfonyl)-methyl-amino]-methyl}-succinamide]: 245 to 247 °C.
